“And” between values parts separate entries of the source, which are not always exact repeats. Equal entries are not always repeated.
Tests used:
formaldehyde pain model = assay: In vivo comparative pain-relieving model study (formaldehyde pain model); parameters: species or system Rabbits; settings: Test 300 mg/kg orally, reference 150 mg/kg; for Amplitude of rubbing activity, Mean / Amplitude of rubbing activity, Sum: group of 4 rabbits; for Amplitude of rubbing activity, Mean / Amplitude of rubbing activity, Sum / Amplitude of rubbing activity: 60 min post dose of formalin; for No. of rubbings / Amplitude of rubbing activity: individual rabbit; for No. of rubbings: 60 min post dose of formalin (2.5%, 0.1 ml into paw)
Method: 12 Rabbits (M&F) (formaldehyde pain model 6 hr) were divided into 3 groups 4 rabbits in each group, Group-A Test (Acetaminophen phenylbutyrate) and Group-B reference (Acetaminophen) and Group-C Control (placebo). Group-A 4 rabbits (2M & 2F) were treated with Test 300 mg/kg orally given and 150 mg/kg; reference compound given to Group-B 4 rabbits (2M & 2F) and placebo given to group-C after 15 min each rat was dosed with 2.5% formalin in saline solution 0.1 ml was injected into middle of paw, and monitor for number of licking or scratching's happened with each animal in all groups and compared each group with other in the below table.

yeast-induced pyrexia = assay: In vivo comparative antipyretic effect study (Baker's yeast induced pyrexia); parameters: species or system SD rats; settings: for Effect on yeast-induced pyrexia (rise in temperature), 3 hours / Effect on yeast-induced pyrexia (rise in temperature), 6 hours / Effect on yeast-induced pyrexia (rise in temperature), 9 hours: SD rats, Test 300 mg/kg orally, reference 150 mg/kg, Mean ± SD, in °C (unit assumed)
Method: The in vivo pharmacological study conducted the anti-pyretic activity of acetaminophen Phenylbutyrate (APPB) formulations in SD rats against yeast induced pyrexia 12 rats (M&F) (Baker's yeast induced antipyretic model 24 hr) After measuring basal TR of the animals, they were injected with a pyrogenic dose of Baker's yeast (0.135 g/kg, i.p.). TR changes were recorded every hour up to 4 h. […] Animals were randomly divided into three groups 4 rats in each group, Group-A Test (Acetaminophen phenylbutyrate) and Group-B reference (Acetaminophen) and Group-C Control (placebo). Group-A 4 rats (2M & 2F) were treated with Test 300 mg/kg orally given and 150 mg/kg reference compound given to Group-B 4 rats (2M & 2F) and placebo given to group-C. From the time baker yeast injection body temperature will rise keep monitor every 30-60 min once and record. And after treatment (time after treatment with test, reference and placebo) the body temperature was monitored rectally, for next 6 hr (0, 0.5, 1.0, 1.5, 2, 3, 4, and 6) using digital thermometer which can capture 0.1 F body temp ad recorded. […] Yeast injection in experimental animals caused significant rise in body temperature at the various time intervals as recorded rectally with the help of a tele-thermometer.

Sprague Dawley (SD) rats = assay: In vivo safety and dose ranging study

Row | SMILES | Amplitude of rubbing activity, Mean (formaldehyde pain model) [s] | Amplitude of rubbing activity, Sum (formaldehyde pain model) [s] | No. of rubbings (formaldehyde pain model) | Amplitude of rubbing activity (formaldehyde pain model) | Effect on yeast-induced pyrexia (rise in temperature), 3 hours (yeast-induced pyrexia) | Effect on yeast-induced pyrexia (rise in temperature), 6 hours (yeast-induced pyrexia) | Effect on yeast-induced pyrexia (rise in temperature), 9 hours (yeast-induced pyrexia) | attenuation of rise in temperature, in words (yeast-induced pyrexia; all time intervals) | attenuation of rise in temperature, in words (yeast-induced pyrexia; 6 and 9 h after yeast injection, in comparison to placebo control group) | attenuation of rise in temperature, in words (yeast-induced pyrexia; 3 h after yeast injection) | treatment related clinical signs (Sprague Dawley (SD) rats; 500, 1000 and 1500 mg/kg/per day orally for 5 days, M&F SD rats) | survival (Sprague Dawley (SD) rats; 500, 1000 and 1500 mg/kg/per day orally for 5 days, observation for one week after treatment) | overall safety conclusion (Sprague Dawley (SD) rats; 500-1500 mg/kg/per day orally for 5 days)
1 | CC(=O)Nc1ccc(O)cc1 [Acetaminophen, N-(4-hydroxyphenyl)acetamide, reference compound] | 2.78 | 16.7 | 1 (2×) and 2 (2×) | 3.1 s and 6.7 s and 2.6 s and 4.3 s | 0.83 ± 0.08 | 1.31 ± 0.23 | 1.91 ± 0.14 | attenuated the rise in temperature to a significant extent at all time intervals |  |  |  |  | 
2 | CC(=O)N(C(=O)CCCc1ccccc1)c1ccc(O)cc1 [APPB, N-(4-phenylbutanoyl)-N-(4-hydroxyphenyl)acetanyide] | 3.62 | 36.19 | 4 and 3 and 2 and 1 | 12.64 s and 11.84 s and 6.69 s and 5.02 s | 1.21 ± 0.13 | 1.48 ± 0.08 | 1.83 ± 0.06 |  | attenuated the raise in temperature in a highly significant manner | significantly attenuated the rise in temperature | No treatment related clinical signs were noticed | All group animals were survived | safe for prolonged use at higher doses
